Patent publication US6479435B1, “Diaryl ethers and processes for their preparation and herbicidal and desiccant compositions containing them” (ISK Americas Incorporated, priority 1997, dated 2002)

Experiments:
Type in all cases: in vivo
[1] = system: soybean (Glycine max L., var. Pella 86, SOY); experiment: Post-emerge greenhouse test, crop damage rating; conditions: 14 days after application
In short: (§1)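 Scores use a 0 (no damage) to 100 (complete kill) scale, taken 14 days after a foliar spray. Acetone solutions with 0.25% v/v non-ionic surfactant were applied by track sprayer at 187 l/ha and 63-1000 g ai/ha to bottom-watered 2-3 leaf plants.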

[2] = system: large crabgrass (Digitaria sanguinalis, DIGSA); experiment: Post-emerge greenhouse herbicide test, phytotoxicity rating; conditions: 14 days after application
In short: as §1

[3] = system: velvetleaf (Abutilon theophrasti, ABUTH); experiment: as above; conditions: 14 days after application
In short: as §1

[4] = system: Johnsongrass (Sorghum halepense, SORHA); experiment: as above; conditions: 14 days after application
In short: as §1

[5] = system: redroot pigweed (Amaranthus retroflexus, AMARE); experiment: as above; conditions: 14 days after application
In short: as §1

[6] = system: lambsquarters (Chenopodium album, CHEAL); experiment: as above; conditions: 14 days after application
In short: as §1

[7] = system: ivyleaf morningglory (Ipomoea hederacea, IPOHE); experiment: as above; conditions: 14 days after application
In short: as §1

[8] = system: green foxtail (Setaria viridis, SETVI); experiment: as above; conditions: 14 days after application
In short: as §1

[9] = system: barnyardgrass (Echinochloa crusgalli, ECHCG); experiment: as above; conditions: 14 days after application
In short: as §1

[10] = system: field corn (Zea mays L., var. Dekalb 535, CORN); experiment: Pre-emerge greenhouse test, crop damage rating; conditions: 14 days after application, rating scale 0-100
In short: (§2)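 Visual 0–100 injury rating (100 = all plants dead) taken 14 days after treatment. Rates of 125–1000 g ai/ha in acetone, 187 l/ha, were sprayed onto soil one day post-sowing; pots were surface-watered to incorporate, then bottom-watered.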

[11] = system: upland rice (Oryza sp., var.Tebonnet, RICE); experiment: Pre-emerge greenhouse test, crop damage rating; conditions: 14 days after application, rating scale 0-100
In short: as §2

[12] = system: common ragweed (Ambrosia artemisiifolia L., AMBEL); experiment: Post-emerge greenhouse herbicide test, phytotoxicity rating; conditions: 14 days after application
In short: as §1

[13] = system: large crabgrass (Digitaria sanguinalis, DIGSA); experiment: Pre-emerge greenhouse herbicide test, phytotoxicity rating; conditions: 14 days after application, rating scale 0-100
In short: as §2

[14] = system: velvetleaf (Abutilon theophrasti, ABUTH); experiment: as above; conditions: 14 days after application, rating scale 0-100
In short: as §2

[15] = system: Johnsongrass (Sorghum halepense, SORHA); experiment: as above; conditions: 14 days after application, rating scale 0-100
In short: as §2

[16] = system: redroot pigweed (Amaranthus retroflexus, AMARE); experiment: as above; conditions: 14 days after application, rating scale 0-100
In short: as §2

[17] = system: lambsquarters (Chenopodium album, CHEAL); experiment: as above; conditions: 14 days after application, rating scale 0-100
In short: as §2

[18] = system: ivyleaf morningglory (Ipomoea hederacea, IPOHE); experiment: as above; conditions: 14 days after application, rating scale 0-100
In short: as §2

[19] = system: green foxtail (Setaria viridis, SETVI); experiment: as above; conditions: 14 days after application, rating scale 0-100
In short: as §2

[20] = system: barnyardgrass (Echinochloa crusgalli, ECHCG); experiment: as above; conditions: 14 days after application, rating scale 0-100
In short: as §2

[21] = system: sicklepod (Cassia obtusifolia, CASOB); experiment: as above; conditions: 14 days after application, rating scale 0-100
In short: as §2

[22] = system: common ragweed (Ambrosia artemisiifolia L., AMBEL); experiment: as above; conditions: 14 days after application, rating scale 0-100
In short: as §2

[23] = system: soybean (Glycine max L., var. Pella 86, SOY); experiment: Pre-emerge greenhouse test, crop damage rating; conditions: 14 days after application, rating scale 0-100
In short: as §2

[24] = system: field corn (Zea mays L., var. Dekalb 535, CORN); experiment: Post-emerge greenhouse test, crop damage rating; conditions: 14 days after application
In short: as §1

[25] = system: upland rice (Oryza sp., var.Tebonnet, RICE); experiment: Post-emerge greenhouse test, crop damage rating; conditions: 14 days after application
In short: as §1

Cn1nc(-c2cc(Oc3ncccc3[N+](=O)[O-])c(Cl)cc2F)c(Cl)c1C(F)(F)F [Compound 1-1]
SOY crop damage rating (0-100) ([1]; 500 g al/ha): 100
DIGSA phytotoxicity rating (0-100) ([2]; 500 g al/ha): 95
ABUTH phytotoxicity rating (0-100) ([3]; 500 g al/ha): 100
SORHA phytotoxicity rating (0-100) ([4]; 500 g al/ha): 90
AMARE phytotoxicity rating (0-100) ([5]; 500 g al/ha): 100
CHEAL phytotoxicity rating (0-100) ([6]; 500 g al/ha): 100
IPOHE phytotoxicity rating (0-100) ([7]; 500 g al/ha): 100
SETVI phytotoxicity rating (0-100) ([8]; 500 g al/ha): 100
ECHCG phytotoxicity rating (0-100) ([9]; 500 g al/ha): 100
crop damage rating CORN ([10]; 500 g ai/ha): 20
crop damage rating RICE ([11]; 500 g ai/ha): 20
AMBEL phytotoxicity rating (0-100) ([12]; 500 g al/ha): 100
phytotoxicity rating DIGSA ([13]; 500 g ai/ha): 90
phytotoxicity rating ABUTH ([14]; 500 g ai/ha): 60
phytotoxicity rating SORHA ([15]; 500 g ai/ha): 70
phytotoxicity rating AMARE ([16]; 500 g ai/ha): 100
phytotoxicity rating CHEAL ([17]; 500 g ai/ha): 100
phytotoxicity rating IPOHE ([18]; 500 g ai/ha): 10
phytotoxicity rating SETVI ([19]; 500 g ai/ha): 100
phytotoxicity rating ECHCG ([20]; 500 g ai/ha): 50
phytotoxicity rating CASOB ([21]; 500 g ai/ha): 20
phytotoxicity rating AMBEL ([22]; 500 g ai/ha): 50
crop damage rating SOY ([23]; 500 g ai/ha): 10
CORN crop damage rating (0-100) ([24]; 500 g al/ha): 60
RICE crop damage rating (0-100) ([25]; 500 g al/ha): 90

Cn1nc(-c2cc(Oc3ncccc3C(F)(F)F)c(Cl)cc2F)c(Cl)c1C(F)(F)F [Compound 1-2]
SOY crop damage rating (0-100) ([1]; 63 g al/ha): 10
SOY crop damage rating (0-100) ([1]; 500 g al/ha): 50
DIGSA phytotoxicity rating (0-100) ([2]; 63 g al/ha): 0
DIGSA phytotoxicity rating (0-100) ([2]; 500 g al/ha): 50
ABUTH phytotoxicity rating (0-100) ([3]; 63 g al/ha): 30
ABUTH phytotoxicity rating (0-100) ([3]; 500 g al/ha): 100
SORHA phytotoxicity rating (0-100) ([4]; 63 g al/ha): 20
SORHA phytotoxicity rating (0-100) ([4]; 500 g al/ha): 40
AMARE phytotoxicity rating (0-100) ([5]; 63 g al/ha): 80
AMARE phytotoxicity rating (0-100) ([5]; 500 g al/ha): 100
CHEAL phytotoxicity rating (0-100) ([6]; 63 g al/ha): 70
CHEAL phytotoxicity rating (0-100) ([6]; 500 g al/ha): 100
IPOHE phytotoxicity rating (0-100) ([7]; 63 g al/ha): 30
IPOHE phytotoxicity rating (0-100) ([7]; 500 g al/ha): 90
SETVI phytotoxicity rating (0-100) ([8]; 63 g al/ha): 0
SETVI phytotoxicity rating (0-100) ([8]; 500 g al/ha): 40
ECHCG phytotoxicity rating (0-100) ([9]; 63 g al/ha): 0
ECHCG phytotoxicity rating (0-100) ([9]; 500 g al/ha): 80
crop damage rating CORN ([10]; 125 g ai/ha): 10
crop damage rating CORN ([10]; 500 g ai/ha): 90
crop damage rating RICE ([11]; 125 g ai/ha): 30
crop damage rating RICE ([11]; 500 g ai/ha): 40
AMBEL phytotoxicity rating (0-100) ([12]; 63 g al/ha): 30
AMBEL phytotoxicity rating (0-100) ([12]; 500 g al/ha): 90
phytotoxicity rating DIGSA ([13]; 125 g ai/ha): 40
phytotoxicity rating DIGSA ([13]; 500 g ai/ha): 95
phytotoxicity rating ABUTH ([14]; 125 g ai/ha): 0
phytotoxicity rating ABUTH ([14]; 500 g ai/ha): 70
phytotoxicity rating SORHA ([15]; 125 g ai/ha): 30
phytotoxicity rating SORHA ([15]; 500 g ai/ha): 50
phytotoxicity rating AMARE ([16]; 125 g ai/ha): 80
phytotoxicity rating AMARE ([16]; 500 g ai/ha): 100
phytotoxicity rating CHEAL ([17]; 125 g ai/ha): 50
phytotoxicity rating CHEAL ([17]; 500 g ai/ha): 99
phytotoxicity rating IPOHE ([18]; 125 g ai/ha): 0
phytotoxicity rating IPOHE ([18]; 500 g ai/ha): 60
phytotoxicity rating SETVI ([19]; 125 g ai/ha): 90
phytotoxicity rating SETVI ([19]; 500 g ai/ha): 99
phytotoxicity rating ECHCG ([20]; 125 g ai/ha): 20
phytotoxicity rating ECHCG ([20]; 500 g ai/ha): 50
phytotoxicity rating CASOB ([21]; 125 g ai/ha): 80
phytotoxicity rating CASOB ([21]; 500 g ai/ha): 0
phytotoxicity rating AMBEL ([22]; 125 g ai/ha): 80
phytotoxicity rating AMBEL ([22]; 500 g ai/ha): 80
crop damage rating SOY ([23]; 125 g ai/ha): 0
crop damage rating SOY ([23]; 500 g ai/ha): 10
CORN crop damage rating (0-100) ([24]; 63 g al/ha): 0
CORN crop damage rating (0-100) ([24]; 500 g al/ha): 10
RICE crop damage rating (0-100) ([25]; 63 g al/ha): 0
RICE crop damage rating (0-100) ([25]; 500 g al/ha): 0
